Measurements as given in patent publication US20090099212A1, “A3 ADENOSINE RECEPTOR ANTAGONISTS” (priority 2007, published 2009).

Legend:
[1] = molecular target: T1, A3 adenosine receptor (Homo sapiens, UniProt P0DMS8); assay: Radioligand binding competition, A3 AdoR (125I-AB-MECA), membranes of HEK-A3 or CHO-A3 cells
T1 construct: expressed in transfected cells; host or cells: HEK-293 or CHO cells (HEK-A3 or CHO-A3), membranes
T1 sequence (P0DMS8 1-318): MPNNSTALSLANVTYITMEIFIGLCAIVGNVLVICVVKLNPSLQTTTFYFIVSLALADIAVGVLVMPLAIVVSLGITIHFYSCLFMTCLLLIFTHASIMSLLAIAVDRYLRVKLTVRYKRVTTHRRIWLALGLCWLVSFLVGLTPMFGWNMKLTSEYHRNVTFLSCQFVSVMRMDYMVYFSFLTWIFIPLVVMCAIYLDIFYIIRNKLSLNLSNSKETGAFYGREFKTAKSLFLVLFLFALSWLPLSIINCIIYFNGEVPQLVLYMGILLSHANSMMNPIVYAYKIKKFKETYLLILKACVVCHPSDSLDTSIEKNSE
Protocol: The cDNAs for human A1, A2A, A2B or A3 AdoRs were prepared by RT-PCR from total RNA of human cells or tissues and sequenced on both strands. The expression vector containing each of these cDNAs and a second vector containing a neomycin or puromycin-resistance gene were introduced to HEK-293 or CHO cells by Lipofectin-Plus (Life Technology). Colonies were selected by growing transfected cells in the presence of neomycin or puromycin. Stably transfected cells were maintained in Dulbecco's modified Eagle's medium (DMEM) or F-12 medium with 10% fetal bovine serum, 100 μg/ml penicillin, 100 μg/ml streptomycin and appropriate concentrations of neomycin or puromycin. These stably transfected cells were referred to as HEK-“AdoR” or CHO-“AdoR” depending on the receptors that they express. For example, cells that were transfected with A3 AdoRs were referred to as HEK-A3 or CHO-A3.
Monolayers of transfected cells were washed with phosphate buffered saline (PBS) and harvested in a buffer containing 10 mM HEPES (pH 7.4), 10 mM EDTA and protease inhibitors. The cells were homogenized in polytron for 1 minute at setting 4 and centrifuged at 29000 g for 15 minutes at 4° C. The cell pellets were washed with a buffer containing 10 mM HEPES (pH7.4), 1 mM EDTA and protease inhibitors, and were resuspended in the same buffer supplemented with 10% sucrose. Frozen aliquots were kept at −80° C.
The affinities of compounds for A1, A2A, A2B or A3 AdoRs were determined in competition studies using radioligands such as ^3H-CPX (A1 antagonist), or ^3H-CCPA (A1 agonist), ^3H-ZM241385 (A2A antagonist) or ^3H-CGS21680 (A2A agonist), ^3H-ZM241385 (A2B antagonist) or ^125I-AB-MECA (A3 agonist) and membranes of corresponding transfected cells. For example, to determine the affinity for A3 AdoRs, the competition assays were started by mixing 0.2 nM ^125I-AB-MECA with various concentrations of test compounds and 25 ug membrane proteins of HEK-A3 or CHO-A3 in TEM buffer (50 mM Tris, 1 mM EDTA and 10 mM MgCl2) supplemented with 1 U/ml adenosine deaminase. The assays were incubated for 90 minutes, stopped by filtration onto GF/B filter plates using Packard Harvester and washed four times with ice-cold TM buffer (10 mM Tris, 1 mM MgCl2, pH 7.4). The amounts of radioligands that bound to the GF/B filter plates were determined by scintillation counting. Nonspecific binding was determined in the presence of 10 μM R-PIA (phenylisopropyladenosine) or 1 μM IB-MECA. Bmax and KD values were calculated using GraphPad software.

[2] = molecular target: T2, A1 adenosine receptor (Homo sapiens, UniProt P30542); assay: Radioligand binding competition, A1 AdoR (3H-CPX or 3H-CCPA), membranes of transfected cells; settings: Table 2
T2 construct: expressed in transfected cells; host or cells: HEK-293 or CHO cells, membranes
T2 sequence (P30542 1-326): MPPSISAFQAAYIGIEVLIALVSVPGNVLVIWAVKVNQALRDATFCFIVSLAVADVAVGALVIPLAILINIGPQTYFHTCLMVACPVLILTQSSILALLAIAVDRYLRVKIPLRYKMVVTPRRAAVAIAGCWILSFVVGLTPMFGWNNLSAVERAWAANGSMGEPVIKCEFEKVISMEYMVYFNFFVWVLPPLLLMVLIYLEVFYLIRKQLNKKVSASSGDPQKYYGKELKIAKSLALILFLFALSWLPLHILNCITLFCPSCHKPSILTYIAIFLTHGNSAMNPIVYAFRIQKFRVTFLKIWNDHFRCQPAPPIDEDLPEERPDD
Protocol: (§1) The cDNAs for human A1, A2A, A2B or A3 AdoRs were prepared by RT-PCR from total RNA of human cells or tissues and sequenced on both strands. The expression vector containing each of these cDNAs and a second vector containing a neomycin or puromycin-resistance gene were introduced to HEK-293 or CHO cells by Lipofectin-Plus (Life Technology). Colonies were selected by growing transfected cells in the presence of neomycin or puromycin. Stably transfected cells were maintained in Dulbecco's modified Eagle's medium (DMEM) or F-12 medium with 10% fetal bovine serum, 100 μg/ml penicillin, 100 μg/ml streptomycin and appropriate concentrations of neomycin or puromycin. […]
(§2) The affinities of compounds for A1, A2A, A2B or A3 AdoRs were determined in competition studies using radioligands such as ^3H-CPX (A1 antagonist), or ^3H-CCPA (A1 agonist), ^3H-ZM241385 (A2A antagonist) or ^3H-CGS21680 (A2A agonist), ^3H-ZM241385 (A2B antagonist) or ^125I-AB-MECA (A3 agonist) and membranes of corresponding transfected cells. […] The amounts of radioligands that bound to the GF/B filter plates were determined by scintillation counting. Nonspecific binding was determined in the presence of 10 μM R-PIA (phenylisopropyladenosine) or 1 μM IB-MECA. Bmax and KD values were calculated using GraphPad software.

[3] = molecular target: T3, A2A adenosine receptor (Homo sapiens, UniProt P29274); assay: Radioligand binding competition, A2A AdoR (3H-ZM241385 or 3H-CGS21680), membranes of transfected cells; settings: Table 2
T3 construct: expressed in transfected cells; host or cells: HEK-293 or CHO cells, membranes
T3 sequence (P29274 whole entry): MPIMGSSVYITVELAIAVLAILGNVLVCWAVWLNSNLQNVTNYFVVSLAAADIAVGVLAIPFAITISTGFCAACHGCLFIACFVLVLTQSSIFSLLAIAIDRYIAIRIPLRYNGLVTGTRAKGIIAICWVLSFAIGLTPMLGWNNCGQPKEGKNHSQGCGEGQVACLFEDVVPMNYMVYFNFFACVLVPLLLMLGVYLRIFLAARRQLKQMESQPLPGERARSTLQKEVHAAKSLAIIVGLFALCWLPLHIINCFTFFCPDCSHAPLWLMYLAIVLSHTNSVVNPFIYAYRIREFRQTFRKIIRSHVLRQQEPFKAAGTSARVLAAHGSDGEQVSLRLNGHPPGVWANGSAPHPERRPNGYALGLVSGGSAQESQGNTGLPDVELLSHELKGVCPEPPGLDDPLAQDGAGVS
Protocol: as §1, §2

[4] = Table 1, 0.2 nM 125I-AB-MECA, HEK-A3 or CHO-A3 membranes
[5] = Table 2, 125I-AB-MECA competition

Row | Molecule | Ki [1, 4] [nM] | other results
1 | CCn1c(-n2cc(-c3cccc(C(F)(F)F)c3)cn2)nc2c(N)nc(NCc3ccccc3)nc21 [(6-amino-9-ethyl-8-{4-[3-(trifluoromethyl)phenyl]pyrazolyl}purin-2-yl)benzylamine] | 1480 | 
2 | ((1S)-1-phenylethyl)[6-amino-8-(4-methylpyrazolyl)-9-propylpurin-2-yl]amine |  | Ki [1, 5]: 0.9 nM
3 | (6-amino-9-propyl-8-pyrazolylpurin-2-yl)(2-phenylethyl)amine | 52 | 
4 | (6-amino-9-propyl-8-pyrazolylpurin-2-yl)[2-(3-fluorophenyl)ethyl]amine | 82 | 
5 | CCn1c(-n2cc(C)cn2)nc2c(N)nc(NCc3ccccc3)nc21 [[6-amino-9-ethyl-8-(4-methylpyrazolyl)purin-2-yl]benzylamine] | 2 | Ki [2]: 225 nM; Ki [3]: 2040 nM
6 | CCn1c(-n2cc(C)cn2)nc2c(NC(=O)C(C)(C)C)nc(NCc3ccccc3)nc21 [N-{9-ethyl-8-(4-methylpyrazolyl)-2-[benzylamino]purin-6-yl}-2,2-dimethylpropanamide] | 18.6 | 

The remaining molecules from weak to strong by Ki [1, 4], led by results:

Row | Ki [1, 4] [nM] | Molecule | other results
7 | 3120 | N-{2-[(2-phenylethyl)amino]-9-propyl-8-pyrazolylpurin-6-yl}[4-(trifluoromethyl)phenyl]carboxamide | 
8 | 910 | N-{2-[(2-phenylethyl)amino]-9-propyl-8-pyrazolylpurin-6-yl}[3-(trifluoromethyl)phenyl]carboxamide | 
9 | 210 | (6-amino-9-propyl-8-pyrazolylpurin-2-yl)[2-(4-fluorophenyl)ethyl]amine | 
10 | 112 | (6-amino-9-propyl-8-pyrazolylpurin-2-yl)[2-(2,5-dimethoxyphenyl)ethyl]amine | 
11 | 7 | CCn1c(-n2cccn2)nc2c(N)nc(NCc3ccccc3)nc21 [(6-amino-9-ethyl-8-pyrazolylpurin-2-yl)benzylamine] | 
12 | 3 | N-{9-ethyl-2-[benzylamino]-8-pyrazolylpurin-6-yl}-2-methoxyacetamide | Ki [2]: 3950 nM; Ki [1, 5]: 3 nM
